Data: patent publication US20230391763A1, “MODULATORS OF THE INTEGRATED STRESS RESPONSE PATHWAY” (Evotec International GmbH, priority 2020, published 2023)
pIC50: −log10 of the molar value.

Test system: Tunicamycin induced ISR (ATF4 signal ratio between nucleus and cytoplasm) in wild-type HEK293 cells
Experiment: HEK-ATF4 High Content Imaging assay
Format: cell-based
Conditions: Homo sapiens, prevention of Tunicamycin induced ISR, 6 h incubation, ATF4 immunofluorescence nucleus/cytoplasm ratio
Experimental: HEK-ATF4 High Content Imaging Assay
Example compounds were tested in the HEK-ATF4 High Content Imaging assay to assess their pharmacological potency to prevent Tunicamycin induced ISR. Wild-type HEK293 cells were plated in 384-well imaging assay plates at a density of 12,000 cells per well in growth medium (containing DMEM/F12, 10% FBS, 2 mM L-Glutamine, 100 U/mL Penicillin—100 μg/mL Streptomycin) and incubated at 37° C., 5% CO2. 24 h later, the medium was changed to 50 μL assay medium per well (DMEM/F12, 0.3% FBS, 2 mM L-Glutamine, 100 U/mL Penicillin—100 μg/mL Streptomycin). Example compounds were serially diluted in DMSO, spotted into intermediate plates and prediluted with assay medium containing 3.3 μM Tunicamycin to give an 11-fold excess of final assay concentration. In addition to the example compound testing area, the plates also contained multiples of control wells for assay normalization purposes, wells containing Tunicamycin but no example compounds (High control), as well as wells containing neither example compound nor Tunicamycin (Low control). The assay was started by transferring 5 μL from the intermediate plate into the assay plates, followed by incubation for 6 h at 37° C., 5% CO2. Subsequently, cells were fixed (4% PFA in PBS, 20 min at r.t.) and submitted to indirect ATF4 immunofluorescence staining (primary antibody rabbit anti ATF4, clone D4B8, Cell Signaling Technologies; secondary antibody Alexa Fluor 488 goat anti-rabbit IgG (H+L), Thermofisher Scientific). Nuclei were stained using Hoechst dye (Thermofisher Scientific), and plates were imaged on an Opera Phenix High Content imaging platform equipped with 405 nm and 488 nm excitation. Finally, images were analyzed using script based algorithms. The main readout HEK-ATF4 monitored the ATF4 signal ratio between nucleus and cytoplasm. Tunicamycin induced an increase in the overall ATF4 ratio signal, which was prevented by ISR modulating example compounds. In addition, HEK-CellCount readout was derived from counting the number of stained nuclei corresponding to healthy cells. This readout served as an internal toxicity control.

Row | SMILES | pIC50
1 | O=C(N[C@H]1CC[C@H](c2nnc(OCCOC(F)(F)F)o2)NC1)c1cc(F)c(Cl)c(F)c1 [Example 32, 4-chloro-3,5-difluoro-N-[(3S,6R)-6-{5-[2-(trifluoromethoxy)ethoxy]-1,3,4-oxadiazol-2-yl}piperidin-3-yl]benzamide] | 4.82 to 5.70
2 | O=C(N[C@H]1CC[C@H](c2nnc(OCCOC(F)(F)F)o2)NC1)c1ccc(C(F)(F)F)c(F)c1 [Example 33, 3-fluoro-N-[(3S,6R)-6-{5-[2-(trifluoromethoxy)ethoxy]-1,3,4-oxadiazol-2-yl}piperidin-3-yl]-4-(trifluoromethyl)benzamide] | 5.70 to 6.30
3 | O=C(N[C@H]1CC[C@H](c2nnc(OCCOC(F)(F)F)o2)NC1)c1ccc(OC(F)(F)F)c(Cl)c1 [Example 34, 3-chloro-4-(trifluoromethoxy)-N-[(3S,6R)-6-{5-[2-(trifluoromethoxy)ethoxy]-1,3,4-oxadiazol-2-yl}piperidin-3-yl]benzamide] | 5.70 to 6.30
4 | O=C(N[C@H]1CC[C@H](c2nnc(OCCOC(F)(F)F)o2)NC1)c1ccc(F)c(C(F)(F)F)c1 [Example 35, 4-fluoro-N-[(3S,6R)-6-{5-[2-(trifluoromethoxy)ethoxy]-1,3,4-oxadiazol-2-yl}piperidin-3-yl]-3-(trifluoromethyl)benzamide] | 4.82 to 5.70
5 | O=C(N[C@H]1CC[C@H](c2nnc(OCCOC(F)(F)F)o2)NC1)c1ccc(C(F)(F)F)c(Cl)c1 [Example 36, 3-chloro-N-[(3S,6R)-6-{5-[2-(trifluoromethoxy)ethoxy]-1,3,4-oxadiazol-2-yl}piperidin-3-yl]-4-(trifluoromethyl)benzamide] | 4.82 to 5.70
6 | O=C(N[C@H]1CC[C@H](c2nnc(OCCOC(F)(F)F)o2)NC1)c1ccc(Cl)c(C(F)(F)F)c1 [Example 37, 4-chloro-N-[(3S,6R)-6-{5-[2-(trifluoromethoxy)ethoxy]-1,3,4-oxadiazol-2-yl}piperidin-3-yl]-3-(trifluoromethyl)benzamide] | 4.82 to 5.70
7 | O=C(N[C@H]1CC[C@H](c2nnc(OCCOC(F)(F)F)o2)NC1)c1cc(Cl)c(Cl)cn1 [Example 38, 4,5-dichloro-N-[(3S,6R)-6-{5-[2-(trifluoromethoxy)ethoxy]-1,3,4-oxadiazol-2-yl}piperidin-3-yl]pyridine-2-carboxamide] | 4.82 to 5.70
8 | O=C(N[C@H]1CC[C@H](c2nnc(OCCOC(F)(F)F)o2)NC1)c1ccc(Cl)c(Cl)n1 [Example 39, 5,6-dichloro-N-[(3S,6R)-6-{5-[2-(trifluoromethoxy)ethoxy]-1,3,4-oxadiazol-2-yl}piperidin-3-yl]pyridine-2-carboxamide] | 4.82 to 5.70
9 | O=C(N[C@H]1CC[C@H](c2nnc(OCCOC(F)(F)F)o2)NC1)c1ccc(Cl)c(OC(F)(F)F)c1 [Example 40, 4-chloro-3-(trifluoromethoxy)-N-[(3S,6R)-6-{5-[2-(trifluoromethoxy)ethoxy]-1,3,4-oxadiazol-2-yl}piperidin-3-yl]benzamide] | 4.82 to 5.70
10 | Cn1c(C(=O)N[C@H]2CC[C@H](c3nnc(OCCOC(F)(F)F)o3)NC2)cc2ccc(C(F)(F)F)cc21 [Example 42, 1-methyl-N-[(3S,6R)-6-[5-[2-(trifluoromethoxy)ethoxy]-1,3,4-oxadiazol-2-yl]-3-piperidyl]-6-(trifluoromethyl)indole-2-carboxamide] | 5.70 to 6.30
11 | Cc1ccc(C(=O)N[C@H]2CC[C@H](c3nnc(OCCOC(F)(F)F)o3)NC2)cc1Cl [Example 44, 3-chloro-4-methyl-N-[(3S,6R)-6-[5-[2-(trifluoromethoxy)ethoxy]-1,3,4-oxadiazol-2-yl]-3-piperidyl]benzamide] | 5.70 to 6.30
12 | O=C(N[C@H]1CC[C@H](c2nnc(-c3ccc(Cl)cc3)o2)NC1)c1cnc2cc(Cl)ccc2c1 [Example 46, 7-chloro-N-[(3S,6R)-6-[5-(4-chlorophenyl)-1,3,4-oxadiazol-2-yl]-3-piperidyl]quinoline-3-carboxamide] | 6.30 to 9.00
13 | O=C(N[C@H]1CC[C@H](c2nnc(OC/C=C/C(F)(F)F)o2)NC1)c1cnc2cc(Cl)ccc2c1 [Example 48, 7-chloro-N-[(3S,6R)-6-[5-[(E)-4,4,4-trifluorobut-2-enoxy]-1,3,4-oxadiazol-2-yl]-3-piperidyl]quinoline-3-carboxamide] | 6.30 to 9.00
14 | O=C(N[C@@H]1CC[C@@H](c2nnc(OCCOC(F)(F)F)o2)NC1)c1cnc2cc(Cl)ccc2c1 [Example 49, 7-chloro-N-[(3R,6S)-6-[5-[2-(trifluoromethoxy)ethoxy]-1,3,4-oxadiazol-2-yl]-3-piperidyl]quinoline-3-carboxamide] | 6.30 to 9.00
15 | O=C(N[C@H]1CC[C@H](c2nnc([C@H]3C[C@@H](OC(F)(F)F)C3)o2)NC1)c1cnc2cc(Cl)ccc2c1 [Example 51, 7-chloro-N-[(3S,6R)-6-{5-[(1s,3s)-3-(trifluoromethoxy)cyclobutyl]-1,3,4-oxadiazol-2-yl}piperidin-3-yl]quinoline-3-carboxamide] | 6.30 to 9.00
16 | O=C(N[C@@H]1CC[C@@H](c2nnc([C@H]3C[C@@H](OC(F)(F)F)C3)o2)NC1)c1cnc2cc(Cl)ccc2c1 [Example 52, 7-chloro-N-[(3R,6S)-6-{5-[(1s,3s)-3-(trifluoromethoxy)cyclobutyl]-1,3,4-oxadiazol-2-yl}piperidin-3-yl]quinoline-3-carboxamide] | 6.30 to 9.00
17 | O=C(N[C@@H]1CC[C@@H](c2nnc(OCCOC(F)(F)F)o2)NC1)c1ccc(Cl)c(Cl)c1 [Example 54, 3,4-dichloro-N-[(3R,6S)-6-[5-[2-(trifluoromethoxy)ethoxy]-1,3,4-oxadiazol-2-yl]-3-piperidyl]benzamide] | 5.70 to 6.30
18 | O=C(N[C@H]1CO[C@H](c2nnc(OCCOC(F)(F)F)o2)OC1)c1cnc2cc(Cl)ccc2c1 [Example 55, 7-chloro-N-[trans-2-{5-[2-(trifluoromethoxy)ethoxy]-1,3,4-oxadiazol-2-yl}-1,3-dioxan-5-yl]quinoline-3-carboxamide] | 6.30 to 9.00
